Experimental findings from patent publication US20250074955A1, “MODIFIED LOW MOLECULAR WEIGHT GLUTENIN SUBUNIT AND USES THEREOF” (Ukko Inc., priority 2022, published 2025) are described below.

Where no end group is shown, it is not given here. Where only a bound is given, the exact number is not on record here.

Test [1] deals with T1, HLA-DQ7.5 (Homo sapiens, UniProt P01909+P01920).
T1 construct: made in house
Nature of the test: MHC class II binding competition assay with radiolabeled probe peptide. To be noted: competition with MHC class II bound radiolabeled probe peptide, purified MHC, 2-4 days incubation. Here is the method:
In-vitro testing of modified gluten peptides was performed by a Major histocompatibility complex (MHC class II) binding assay (Sidney J. et. al. Current protocols in immunology 100.1 (2013)). Briefly, competition assays using different concentrations of WT and modified low molecular weight glutenin subunit (LMW-GS) peptides were conducted by diluting the peptides in NP40 buffer, and incubation for 2-4 days with purified MHC and a radiolabeled known MHC binding peptide (peptide probe). MHC class II molecules were purified by affinity chromatography, and peptides were radiolabeled using the chloramine T method. After the incubation period, the bound and unbound radiolabeled species were separated, and their relative amounts were determined by either size-exclusion gel-filtration chromatography or monoclonal antibody capture of MHC. The percentage of bound radioactivity was then determined. For each modified peptide, IC50 of WT and modified peptide were calculated. The known gluten peptide epitopes were analyzed for MHC binding as a positive control, both in the non-deamidated and in the deamidated form.
Tables I and II list the measured IC50 values from competition assays between the specified peptides and an MHC class II bound probe peptide.

In test [2] the target is HLA-DQ8 (Homo sapiens, UniProt P01909+P01920, A209T/A45G/C70Q/D89A/DUP78-78/E183D/E77G/F237L/G63E/H199R/I129T/K197E/L178F/L74F/L98V/Q57E/Q76R/S185I/S97I/T217I/T49S/V73L/Y58L). The description is as above. As to conditions: competition with MHC class II bound radiolabeled probe peptide, purified MHC, 2-4 days incubation.
In test [3] the target is HLA-DQ2.2 (Homo sapiens, UniProt P01909+P01920, A45G/A70V/C70K/D167G/D89A/E106A/E183D/E77G/E98D/F237L/F77L/G63E/H199R/I129T/K197E/L107V/L178F/L74F/N214S/P84L/P87L/Q57E/Q76R/R75H/S185I/S97I/T103K/T109R/T172A/T60S/V73L/V78E/V99I/Y48F/Y58L/Y62S/Y69I/Y79F). The description is as above. To be noted: competition with MHC class II bound radiolabeled probe peptide, purified MHC, 2-4 days incubation.

The target in test [4] is HLA-DQ2.5 (Homo sapiens, UniProt P01909+P01920, A45G/A70V/D89A/E106A/E77G/E98D/H199R/L107V/N214S/P84L/P87L/T103K/T109R/T172A/T60S/V78E/V99I/Y58L/Y62S/Y69I/Y79F). The description is as above. As to conditions: competition with MHC class II bound radiolabeled probe peptide, purified MHC, 2-4 days incubation.
Test [5] concerns the target HLA-DQ8 (human). Nature of the test: competition with radiolabeled probe peptide, purified MHC class II.
Test [6] concerns the target HLA-DQ2.2 (human). The description is as above.
In test [7] the target is HLA-DQ2.5 (human). The test is described as above.

For the molecule QQPAFSRQHQPSLPQ [SEQ ID NO: 73], the IC50 in test [1] was more than 40 µM.
Turning to QQPPDSHQEHSPGPQ [SEQ ID NO: 187], the IC50 in test [2], in test [3], in test [1] and in test [4] was more than 40 µM throughout.
In the case of QQPPFPRQHQQFPQQ [SEQ ID NO: 74], the IC50 in test [2], in test [3], in test [1] and in test [4] was more than 40 µM throughout.
For QQSPFPEQEQQHQQL [SEQ ID NO: 183], the IC50 in test [2] is 39.9 µM; in test [3], more than 40 µM; in test [1] it was more than 40 µM; in test [4] it was 32.4 µM.
Regarding QSPFSRQQKSPFSQQ [SEQ ID NO: 80], the IC50 in test [2], in test [3], in test [1] and in test [4] was more than 40 µM each time.
Consider QQPFPEQQRSQFSQQ [SEQ ID NO: 85], for which the IC50 was 35.8 µM in test [2], more than 40 µM in test [3], more than 40 µM in test [1] and more than 40 µM in test [4].
As for QQPPFSHQRPPFSQQ [SEQ ID NO: 70], the IC50 is 39.1 µM in test [2], more than 40 µM in test [3], more than 40 µM in test [1] and more than 40 µM in test [4].
As for QPSFSRQQKQPQSQQ [SEQ ID NO: 86], the IC50 in test [2], in test [3], in test [1] and in test [4] was more than 40 µM in each case.
On to QQSPFSRQEKSPFSQ [SEQ ID NO: 78], for which the IC50 in test [2], in test [3], in test [1] and in test [4] was more than 40 µM in each case.
On to QGPPFSKQTQPVIPQ [SEQ ID NO: 72], for which the IC50 in test [2], in test [3], in test [1] and in test [4] was more than 40 µM each time.
On to QQPPFSKQEQQQPIL [SEQ ID NO: 71], for which the IC50 is 29.8 µM in test [2], more than 40 µM in test [3], more than 40 µM in test [1] and more than 40 µM in test [4].
With QPPSSEQQHSPPSQQ [SEQ ID NO: 81], the IC50 in test [2] was 31.9 µM; in test [3] it was 39.8 µM; in test [1], more than 40 µM; in test [4], more than 40 µM.
Take QPPDSHQQHSPGSQQ [SEQ ID NO: 84]: the IC50 in test [2], in test [3], in test [1] and in test [4] was more than 40 µM in each case.
For GPPFSKQTEPVISQQ [SEQ ID NO: 186], the IC50 is 38.2 µM in test [2], more than 40 µM in test [3], more than 40 µM in test [1] and more than 40 µM in test [4].
In test [1], QQPPSSEQEHSPPSQ [SEQ ID NO: 79] displayed an IC50 of more than 40 µM.
As to QPPSSEQQHSPPSQQ [… (SEQ ID NO: 81)], the IC50 in test [5] is 31.9 µM; in test [6] it was 39.8 µM.
Turning to QQPAFSRQHQPSLPQ [… (SEQ ID NO: 73)], the IC50 in test [7] came out at 30.4 µM.
For QQPPFSEQEQPSSQQ [… (SEQ ID NO: 77)], the IC50 in test [5] worked out at 31.5 µM; in test [7] it was 32.3 µM.
QQPPFWQHQPPFSQQ [… (SEQ ID NO: 76)] showed an IC50 in test [7] of 37.4 µM.
For QPFFSHQQRSGFSQQ [… (SEQ ID NO: 83)], in test [5], the IC50 stood at 39.2 µM.
On the same count and under the same terms, the value for GPPFSKQTEPVISQQ [… (SEQ ID NO: 186)] was 38.2 µM; that for QSPFPEQQEQHQQLQ [… (SEQ ID NO: 185)] was 37.9 µM.
The molecule QQPFPEQQRSQFSQQ [… (SEQ ID NO: 85)] displayed an IC50 in test [5] of 35.8 µM.
For QQSPFPEQEQQHQQL [… (SEQ ID NO: 183)], the IC50 in test [5] was determined as 39.9 µM; in test [7] it was 32.4 µM.
In the same order, the values of QPPFSEQQESPFSQQ [… (SEQ ID NO: 69)] are 1.14 µM and 0.158 µM.
Turning to QQPPFSKQEQQQPIL [… (SEQ ID NO: 71)], in test [5], the IC50 is 29.8 µM.
Regarding QQPPFSHQRPPFSQQ [… (SEQ ID NO: 70)], the IC50 in test [5] came out at 39.1 µM.

As usually defined, the IC50 is the concentration needed to halve the response being measured. A low value points to inhibition by little substance.
